The target of test [1] is Acetylcholinesterase (Electrophorus electricus, UniProt O42275).
The target in test [2] is T1, Amine oxidase [flavin-containing] A (Homo sapiens, UniProt P21397).
T1 sequence (P21397 whole entry): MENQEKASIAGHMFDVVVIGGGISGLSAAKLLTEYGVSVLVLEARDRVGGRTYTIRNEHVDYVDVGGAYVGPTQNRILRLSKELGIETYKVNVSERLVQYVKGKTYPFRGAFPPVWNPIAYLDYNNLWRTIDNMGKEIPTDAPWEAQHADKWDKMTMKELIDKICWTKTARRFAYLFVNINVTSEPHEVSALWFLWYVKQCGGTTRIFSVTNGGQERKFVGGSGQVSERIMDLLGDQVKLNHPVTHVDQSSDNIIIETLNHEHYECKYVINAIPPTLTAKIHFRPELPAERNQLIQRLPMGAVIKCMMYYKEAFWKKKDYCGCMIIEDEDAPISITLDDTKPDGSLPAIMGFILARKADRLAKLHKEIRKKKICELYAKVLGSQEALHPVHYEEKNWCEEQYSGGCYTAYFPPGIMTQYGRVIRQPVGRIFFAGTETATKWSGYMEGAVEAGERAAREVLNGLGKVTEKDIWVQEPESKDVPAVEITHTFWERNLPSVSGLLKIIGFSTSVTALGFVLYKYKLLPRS
Format: ADME.
Description: Inhibition of recombinant human MAO-A assessed as reduction in 4-hydroxyquinolone production using kynuramine as substrate after 20 mins by fluorescence assay

The target in test [3] is Cholinesterase (Equus caballus, UniProt P81908).

A value given as a limit tells only on which side of the number the result lay.

Sequence of Acetylcholinesterase (O42275 whole entry): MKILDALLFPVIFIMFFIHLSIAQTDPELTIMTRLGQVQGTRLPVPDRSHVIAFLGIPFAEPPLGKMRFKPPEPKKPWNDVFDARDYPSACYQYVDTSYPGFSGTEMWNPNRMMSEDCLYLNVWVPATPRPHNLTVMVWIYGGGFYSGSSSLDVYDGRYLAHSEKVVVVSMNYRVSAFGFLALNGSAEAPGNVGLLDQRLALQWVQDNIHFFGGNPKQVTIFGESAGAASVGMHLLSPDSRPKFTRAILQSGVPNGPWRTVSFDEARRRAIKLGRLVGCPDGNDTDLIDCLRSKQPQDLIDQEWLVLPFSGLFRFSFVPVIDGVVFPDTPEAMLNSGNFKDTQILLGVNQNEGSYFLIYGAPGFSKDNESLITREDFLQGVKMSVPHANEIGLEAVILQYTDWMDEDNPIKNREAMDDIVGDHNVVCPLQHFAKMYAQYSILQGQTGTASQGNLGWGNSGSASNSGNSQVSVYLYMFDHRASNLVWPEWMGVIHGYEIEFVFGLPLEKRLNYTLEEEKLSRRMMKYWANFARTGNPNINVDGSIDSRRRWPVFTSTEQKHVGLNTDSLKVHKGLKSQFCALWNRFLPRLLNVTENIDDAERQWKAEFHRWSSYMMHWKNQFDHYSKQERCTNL
Sequence of Cholinesterase (P81908 whole entry): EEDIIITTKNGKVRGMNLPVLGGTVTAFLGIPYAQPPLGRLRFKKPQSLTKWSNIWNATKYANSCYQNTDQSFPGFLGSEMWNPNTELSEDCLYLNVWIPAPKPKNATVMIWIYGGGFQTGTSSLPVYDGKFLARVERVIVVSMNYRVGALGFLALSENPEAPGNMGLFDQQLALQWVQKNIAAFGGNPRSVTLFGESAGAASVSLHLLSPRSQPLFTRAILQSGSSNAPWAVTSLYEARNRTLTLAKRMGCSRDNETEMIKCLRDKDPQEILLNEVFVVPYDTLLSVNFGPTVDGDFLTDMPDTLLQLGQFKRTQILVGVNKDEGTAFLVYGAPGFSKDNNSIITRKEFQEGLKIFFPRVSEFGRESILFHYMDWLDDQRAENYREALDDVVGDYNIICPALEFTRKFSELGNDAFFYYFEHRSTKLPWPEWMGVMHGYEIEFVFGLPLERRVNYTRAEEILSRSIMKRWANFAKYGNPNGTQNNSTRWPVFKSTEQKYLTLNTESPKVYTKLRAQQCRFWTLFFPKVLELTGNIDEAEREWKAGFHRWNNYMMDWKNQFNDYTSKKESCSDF

`Cc1cc(=O)oc2cc(OCCN3CCCCC3)ccc12`: the IC50 (commonly the concentration needed to halve the response being measured) in test [1] was determined as 66.4 µM.
`Cc1cc(=O)oc2cc(OCCN3CCC(Cc4ccccc4)CC3)ccc12`: the IC50 in test [2] is > 10 µM; in test [1], 29.4 µM; in test [3], 5.19 µM.
For `Cc1cc(=O)oc2cc(OCc3ccc(Br)cc3)ccc12` the same measures were 0.05 µM, > 100 µM and > 100 µM.
For `Cc1c(Cl)c(=O)oc2cc(OCCN3CCN(Cc4ccc(Br)cc4)CC3)ccc12` the same measures were > 10 µM, > 100 µM and 3.12 µM.
Regarding `Cc1c(C#N)c(=O)oc2cc(OCc3ccc(Br)cc3)ccc12`, the IC50 in test [1] and in test [3] was > 100 µM throughout.
Turning to `Cc1c(C#N)c(=O)oc2cc(OCc3ccccc3)ccc12`, the IC50 in test [2] is 1.38 µM; in test [1], > 100 µM; in test [3], 21.8 µM.
On the same counts, the results for `O=c1cc(C(F)(F)F)c2ccc(OCCN3CCC(Cc4ccccc4)CC3)cc2o1` are > 10 µM, > 100 µM and > 100 µM.
As for `O=c1cc(C(F)(F)F)c2ccc(OCCN3CCN(Cc4ccc(Br)cc4)CC3)cc2o1`, the IC50 in test [2] is > 10 µM; in test [1], > 100 µM; in test [3], > 100 µM.
As to `Cc1c(Cl)c(=O)oc2cc(OCc3ccccc3)ccc12`, the IC50 in test [2] was 2.13 µM; in test [1] it was > 100 µM; in test [3] it was 0.96 µM.
Consider `Cc1c(Cl)c(=O)oc2cc(OCc3ccc(Br)cc3)ccc12`, for which the IC50 in test [1] and in test [3] was > 100 µM in each case.
`Cc1c(C#N)c(=O)oc2cc(OCc3ccccc3Br)ccc12`: the IC50 in test [2] is > 10 µM; in test [1], > 100 µM; in test [3], > 100 µM.
Consider `Cc1cc(=O)oc2cc(OCCN3CCN(Cc4ccc(Br)cc4)CC3)ccc12`, for which the IC50 in test [2] is > 10 µM; in test [1], 12.8 µM; in test [3], 9.7 µM.
`O=c1ccc2ccc(OCCN3CCC(Cc4ccccc4)CC3)cc2o1`: the IC50 was > 10 µM in test [2], 36.7 µM in test [1] and 20.3 µM in test [3].
Regarding `Cc1c(C#N)c(=O)oc2cc(OCCN3CCN(Cc4ccc(Br)cc4)CC3)ccc12`, the IC50 in test [2] was > 10 µM; in test [1], 38.5 µM; in test [3], 13.3 µM.
As to `O=c1ccc2ccc(OCc3ccc(Br)cc3)cc2o1`, the IC50 in test [1] and in test [3] was > 100 µM each time.
In the case of `O=c1cc(C(F)(F)F)c2ccc(OCc3ccc(Br)cc3)cc2o1`, the IC50 is > 10 µM in test [2], > 100 µM in test [1] and > 100 µM in test [3].
For `Cc1c(C#N)c(=O)oc2cc(OCCN3CCC(Cc4ccccc4)CC3)ccc12`, the IC50 in test [2] is > 10 µM; in test [1], 9.1 µM; in test [3] it was 5.9 µM.
For `O=c1ccc2ccc(OCCN3CCN(Cc4ccc(Br)cc4)CC3)cc2o1` the same measures were > 10 µM, > 100 µM and 50.1 µM.
Consider `Cc1c(C#N)c(=O)oc2cc(OCc3ccc(F)cc3)ccc12`, for which the IC50 in test [1] and in test [3] was > 100 µM throughout.
Turning to `Cc1c(C#N)c(=O)oc2cc(OCc3ccc(Cl)cc3)ccc12`, the IC50 in test [1] and in test [3] was > 100 µM each time.
In the case of `Cc1c(Cl)c(=O)oc2cc(OCCN3CCC(Cc4ccccc4)CC3)ccc12`, the concentration for half-maximal inhibition (IC50) in test [2] was > 10 µM; in test [1], 31.3 µM; in test [3], 1.27 µM.
Regarding `O=c1ccc2ccc(OCCN3CCCCC3)cc2o1`, the IC50 in test [1] was 54.9 µM.
With `Cc1c(C#N)c(=O)oc2cc(OCc3ccc(Br)cc3Br)ccc12`, the IC50 in test [2] was 0.72 µM; in test [1], > 100 µM; in test [3] it was > 100 µM.
